Source: the supplement of paper PMC10307832

Assays:
Assay in all cases: relative viability (nuclei count vs DMSO), 5 days (fraction); higher = more cells survive
Carfilzomib + Luminespib = compound: CC(C)C[C@H](NC(=O)[C@H](CCc1ccccc1)NC(=O)CN1CCOCC1)C(=O)N[C@@H](Cc1ccccc1)C(=O)N[C@@H](CC(C)C)C(=O)[C@@]1(C)CO1 [Carfilzomib] + CCNC(=O)c1noc(-c2cc(C(C)C)c(O)cc2O)c1-c1ccc(CN2CCOCC2)cc1 [Luminespib] (partner 0.01 µM)
In short: (§1)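 The day after seeding in 1536-well plates, lung cancer cell lines were treated by pin tool with a single drug, or with a fixed anchor-drug dose together with five library-drug doses (not always all listed) in √10 steps. After 5 days, a combined fix-and-stain solution (final 0.05% Triton X-100, 1% formaldehyde, 1 ug/ml Hoechst) was added. Nuclei counted on 4× images gave relative viability as treated counts over vehicle counts, reported as the median of duplicate plates.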

Crizotinib + Tozasertib = compound: C[C@@H](Oc1cc(-c2cnn(C3CCNCC3)c2)cnc1N)c1c(Cl)ccc(F)c1Cl [Crizotinib] + Cc1cc(Nc2cc(N3CCN(C)CC3)nc(Sc3ccc(NC(=O)C4CC4)cc3)n2)n[nH]1 [Tozasertib] (partner 0.1 µM)
In short: as §1

Olaparib + Trametinib = compound: O=C(c1cc(Cc2n[nH]c(=O)c3ccccc23)ccc1F)N1CCN(C(=O)C2CC2)CC1 [Olaparib] + CC(=O)Nc1cccc(-n2c(=O)n(C3CC3)c(=O)c3c(Nc4ccc(I)cc4F)n(C)c(=O)c(C)c32)c1 [Trametinib] (partner 0.02 µM)
In short: as §1

Olaparib + Lapatinib = compound: O=C(c1cc(Cc2n[nH]c(=O)c3ccccc23)ccc1F)N1CCN(C(=O)C2CC2)CC1 [Olaparib] + CS(=O)(=O)CCNCc1ccc(-c2ccc3ncnc(Nc4ccc(OCc5cccc(F)c5)c(Cl)c4)c3c2)o1 [Lapatinib] (partner 2 µM)
In short: as §1

Cell Line: SK-LU-1
- relative viability (Carfilzomib + Luminespib; first compound 0.001 µM): 0.238
- relative viability (Carfilzomib + Luminespib; first compound 0.003162 µM): 0.223
- relative viability (Carfilzomib + Luminespib; first compound 0.01 µM): 0.211
- relative viability (Carfilzomib + Luminespib; first compound 0.03162 µM): 0.154
- relative viability (Carfilzomib + Luminespib; first compound 0.1 µM): 0.13
- relative viability (Crizotinib + Tozasertib; first compound 0.01 µM): 0.287
- relative viability (Crizotinib + Tozasertib; first compound 0.03162 µM): 0.373
- relative viability (Crizotinib + Tozasertib; first compound 0.1 µM): 0.328
- relative viability (Crizotinib + Tozasertib; first compound 0.3162 µM): 0.334
- relative viability (Crizotinib + Tozasertib; first compound 1 µM): 0.27
- relative viability (Olaparib + Trametinib; first compound 0.08 µM): 0.515
- relative viability (Olaparib + Trametinib; first compound 0.253 µM): 0.402
- relative viability (Olaparib + Trametinib; first compound 2.53 µM): 0.496
- relative viability (Olaparib + Trametinib; first compound 8 µM): 0.417
- relative viability (Olaparib + Lapatinib; first compound 0.08 µM): 1.2
- relative viability (Olaparib + Lapatinib; first compound 0.253 µM): 0.803
- relative viability (Olaparib + Lapatinib; first compound 2.53 µM): 0.83
- relative viability (Olaparib + Lapatinib; first compound 8 µM): 0.683

Cell Line: SK-MES-1
- relative viability (Carfilzomib + Luminespib; first compound 0.001 µM): 0.854
- relative viability (Carfilzomib + Luminespib; first compound 0.003162 µM): 0.902
- relative viability (Carfilzomib + Luminespib; first compound 0.01 µM): 0.759
- relative viability (Carfilzomib + Luminespib; first compound 0.03162 µM): 0.544
- relative viability (Carfilzomib + Luminespib; first compound 0.1 µM): 0.172
- relative viability (Crizotinib + Tozasertib; first compound 0.01 µM): 0.844
- relative viability (Crizotinib + Tozasertib; first compound 0.03162 µM): 0.905
- relative viability (Crizotinib + Tozasertib; first compound 0.1 µM): 0.87
- relative viability (Crizotinib + Tozasertib; first compound 0.3162 µM): 0.808
- relative viability (Crizotinib + Tozasertib; first compound 1 µM): 0.845
- relative viability (Olaparib + Trametinib; first compound 0.08 µM): 0.577
- relative viability (Olaparib + Trametinib; first compound 0.253 µM): 0.539
- relative viability (Olaparib + Trametinib; first compound 2.53 µM): 0.608
- relative viability (Olaparib + Trametinib; first compound 8 µM): 0.616
- relative viability (Olaparib + Lapatinib; first compound 0.08 µM): 0.537
- relative viability (Olaparib + Lapatinib; first compound 0.253 µM): 0.491
- relative viability (Olaparib + Lapatinib; first compound 2.53 µM): 0.501
- relative viability (Olaparib + Lapatinib; first compound 8 µM): 0.433

Cell Line: SW 1573
- relative viability (Carfilzomib + Luminespib; first compound 0.001 µM): 0.317
- relative viability (Carfilzomib + Luminespib; first compound 0.003162 µM): 0.23
- relative viability (Carfilzomib + Luminespib; first compound 0.01 µM): 0.368
- relative viability (Carfilzomib + Luminespib; first compound 0.03162 µM): 0.0748
- relative viability (Carfilzomib + Luminespib; first compound 0.1 µM): 0.057
- relative viability (Crizotinib + Tozasertib; first compound 0.01 µM): 0.178
- relative viability (Crizotinib + Tozasertib; first compound 0.03162 µM): 0.216
- relative viability (Crizotinib + Tozasertib; first compound 0.1 µM): 0.188
- relative viability (Crizotinib + Tozasertib; first compound 0.3162 µM): 0.198
- relative viability (Crizotinib + Tozasertib; first compound 1 µM): 0.162
- relative viability (Olaparib + Trametinib; first compound 0.08 µM): 0.591
- relative viability (Olaparib + Trametinib; first compound 0.253 µM): 0.565
- relative viability (Olaparib + Trametinib; first compound 2.53 µM): 0.515
- relative viability (Olaparib + Trametinib; first compound 8 µM): 0.473
- relative viability (Olaparib + Lapatinib; first compound 0.08 µM): 1.16
- relative viability (Olaparib + Lapatinib; first compound 0.253 µM): 1
- relative viability (Olaparib + Lapatinib; first compound 2.53 µM): 1
- relative viability (Olaparib + Lapatinib; first compound 8 µM): 0.689

Cell Line: UMC-11
- relative viability (Carfilzomib + Luminespib; first compound 0.001 µM): 1.01
- relative viability (Carfilzomib + Luminespib; first compound 0.003162 µM): 1.01
- relative viability (Carfilzomib + Luminespib; first compound 0.01 µM): 1.02
- relative viability (Carfilzomib + Luminespib; first compound 0.03162 µM): 0.846
- relative viability (Carfilzomib + Luminespib; first compound 0.1 µM): 0.268
- relative viability (Crizotinib + Tozasertib; first compound 0.01 µM): 0.185
- relative viability (Crizotinib + Tozasertib; first compound 0.03162 µM): 0.184
- relative viability (Crizotinib + Tozasertib; first compound 0.1 µM): 0.192
- relative viability (Crizotinib + Tozasertib; first compound 1 µM): 0.208
- relative viability (Olaparib + Trametinib; first compound 0.08 µM): 0.651
- relative viability (Olaparib + Trametinib; first compound 0.253 µM): 0.644
- relative viability (Olaparib + Trametinib; first compound 2.53 µM): 0.59
- relative viability (Olaparib + Trametinib; first compound 8 µM): 0.376
- relative viability (Olaparib + Lapatinib; first compound 0.08 µM): 1.08
- relative viability (Olaparib + Lapatinib; first compound 0.253 µM): 0.928
- relative viability (Olaparib + Lapatinib; first compound 2.53 µM): 0.643
- relative viability (Olaparib + Lapatinib; first compound 8 µM): 0.365
